The values below come from the Kinase Knowledgebase extract (Sharma et al. 2016).

Each structure is given as a SMILES string. pIC50: −log10 of the molar value.

The test deals with EGFR (UniProt P00533).
Chain of EGFR (P00533 whole entry, looked up): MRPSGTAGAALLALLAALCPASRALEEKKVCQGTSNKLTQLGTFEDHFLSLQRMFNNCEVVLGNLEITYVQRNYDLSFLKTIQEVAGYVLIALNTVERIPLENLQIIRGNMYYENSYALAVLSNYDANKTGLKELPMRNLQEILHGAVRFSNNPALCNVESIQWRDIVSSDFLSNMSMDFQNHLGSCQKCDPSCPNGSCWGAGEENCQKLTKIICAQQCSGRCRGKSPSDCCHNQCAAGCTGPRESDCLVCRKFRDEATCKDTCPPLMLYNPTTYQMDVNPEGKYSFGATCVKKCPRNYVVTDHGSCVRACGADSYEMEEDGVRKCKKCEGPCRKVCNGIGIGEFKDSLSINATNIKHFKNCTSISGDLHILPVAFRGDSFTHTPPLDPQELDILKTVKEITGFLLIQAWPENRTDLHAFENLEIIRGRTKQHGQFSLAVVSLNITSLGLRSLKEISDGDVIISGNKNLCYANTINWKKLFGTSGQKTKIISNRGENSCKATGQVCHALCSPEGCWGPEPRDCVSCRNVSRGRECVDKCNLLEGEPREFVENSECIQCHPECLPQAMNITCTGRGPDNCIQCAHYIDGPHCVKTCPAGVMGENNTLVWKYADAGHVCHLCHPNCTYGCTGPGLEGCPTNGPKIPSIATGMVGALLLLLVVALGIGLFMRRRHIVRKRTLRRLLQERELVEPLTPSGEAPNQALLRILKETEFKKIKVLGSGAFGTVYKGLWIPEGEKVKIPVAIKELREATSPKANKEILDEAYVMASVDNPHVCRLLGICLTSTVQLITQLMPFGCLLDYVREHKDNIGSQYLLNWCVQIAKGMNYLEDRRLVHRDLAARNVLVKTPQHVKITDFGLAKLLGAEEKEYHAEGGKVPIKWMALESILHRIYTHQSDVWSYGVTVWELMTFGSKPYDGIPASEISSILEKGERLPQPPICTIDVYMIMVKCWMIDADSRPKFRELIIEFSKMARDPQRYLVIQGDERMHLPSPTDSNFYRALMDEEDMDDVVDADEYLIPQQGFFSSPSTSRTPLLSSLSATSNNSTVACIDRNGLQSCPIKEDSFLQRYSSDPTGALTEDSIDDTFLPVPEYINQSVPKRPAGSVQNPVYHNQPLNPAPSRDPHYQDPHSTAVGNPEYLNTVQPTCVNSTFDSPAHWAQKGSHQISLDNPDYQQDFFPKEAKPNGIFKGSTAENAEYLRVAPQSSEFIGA
`CN(CC(O)CO)c1cc2ncnc(Nc3cccc(Br)c3)c2cn1` (stereo unspecified) had a pIC50 of 8.49.

Consider `COc1cccc(Nc2ncnc3cc(N)ncc23)c1`, for which the pIC50 was 6.88. As to `Cc1cccc(Nc2ncnc3cc(NCCCCN(C)C)ncc23)c1`, the pIC50 was 8.26. For `CNc1ccc2ncnc(Nc3cccc(Br)c3)c2n1` the value was 8.49; for `Nc1cc2ncnc(Nc3ccc(Br)cc3)c2cn1`, 7.59; for `Brc1cccc(Nc2ncnc3cc(NCCCN4CCOCC4)ncc23)c1`, 8.72. For `OCCN(CCO)CCCNc1cc2ncnc(Nc3cccc(Br)c3)c2cn1` the value was 8.92; for `CN(C)CCCCNc1cc2ncnc(Nc3cccc(Br)c3)c2cn1`, 8.13. Molecule `OCN(CO)c1cc2ncnc(Nc3cccc(Br)c3)c2cn1` had a pIC50 of 7.85. For `OCCNc1cc2ncnc(Nc3cccc(Br)c3)c2cn1` the value was 9.60; for `Fc1ccc2c(Nc3cccc(Br)c3)ncnc2n1`, 6.16; for `CN(C)CCCCCNc1cc2ncnc(Nc3cccc(Br)c3)c2cn1`, 8.07.

As for `O=S(=O)(O)CCNc1cc2ncnc(Nc3cccc(Br)c3)c2cn1`, the pIC50 was 8.85. On to `CC(=O)Nc1cc2ncnc(Nc3cccc(Br)c3)c2cn1`, for which the pIC50 is 7.53. Consider `NNc1cc2ncnc(Nc3cccc(Br)c3)c2cn1`, for which the pIC50 is 8.14.

`OCCN(CCO)c1cc2ncnc(Nc3cccc(Br)c3)c2cn1` had a pIC50 of 7.92. In the case of `Cc1cccc(Nc2ncnc3cc(NCCCN4CCN(C)CC4)ncc23)c1`, the pIC50 was 8.25. The figure for `OCC(O)CNc1cc2ncnc(Nc3cccc(Br)c3)c2cn1` (stereo unspecified) is 9.03; for `Brc1cccc(Nc2ncnc3cc(NCCc4c[nH]cn4)ncc23)c1` it is 9.04. In the case of `CN(C)CCCNc1cc2ncnc(Nc3cccc(Br)c3)c2cn1`, the pIC50 was 8.05. `Brc1cccc(Nc2ncnc3cnc(NCCc4c[nH]cn4)nc23)c1` showed a pIC50 of 9.60. In turn, `OCCN(CCO)CCNc1cc2ncnc(Nc3cccc(Br)c3)c2cn1` gave a pIC50 of 8.03. With `CN1CCN(CCCNc2cc3ncnc(Nc4cccc(Br)c4)c3cn2)CC1`, the pIC50 is 8.30. The figure for `Brc1cccc(Nc2ncnc3cnc(NCCN4CCOCC4)nc23)c1` is 9.09. The figure for `O=C(O)CCCNc1cc2ncnc(Nc3cccc(Br)c3)c2cn1` is 9.55; for `Brc1cccc(Nc2ncnc3cc(NCCCCN4CCOCC4)ncc23)c1` it is 8.26; for `Brc1cccc(Nc2ncnc3cc(NCCN4CCOCC4)ncc23)c1` it is 8.49. For `O=C(O)CNc1cc2ncnc(Nc3cccc(Br)c3)c2cn1` the value was 8.82; for `COc1cc2ncnc(Nc3cccc(Br)c3)c2cn1`, 7.40. Molecule `O=C(O)CCNc1cc2ncnc(Nc3cccc(Br)c3)c2cn1` gave a pIC50 of 9.21. For `Brc1cccc(Nc2ncnc3cc(NCCCn4ccnc4)ncc23)c1` the value was 9.29; for `CN(C)CCNc1cc2ncnc(Nc3cccc(Br)c3)c2cn1`, 7.34.

For the molecule `CN(C)CCN(C)c1cc2ncnc(Nc3cccc(Br)c3)c2cn1`, the pIC50 was 7.40.

Turning to `CN(CC(=O)O)c1cc2ncnc(Nc3cccc(Br)c3)c2cn1`, the negative-log IC50 (pIC50) is 7.79.

As for `CN(CCO)c1cc2ncnc(Nc3cccc(Br)c3)c2cn1`, the pIC50 is 8.59.

With `Cc1cccc(Nc2ncnc3cc(NCCCn4ccnc4)ncc23)c1`, the pIC50 was 8.46.

In general, pIC50 refers to the IC50 on a negative log10 scale, so that one unit is a factor of ten.
